US9926261B2, “Bacterial efflux pump inhibitors” (Rutgers, The State University of New Jersey, priority 2015, dated 2018)

These compounds were tested on Escherichia coli W4573 (assay: Test A. Minimum Inhibitory Concentration (MIC)-based assay for efflux pump inhibition (enhancement of minocycline MIC)). Conditions: ratio of minocycline MIC in absence of test compound to minocycline MIC in presence of test compound, test compound 12.5 μg/mL, CAMH broth, 24 hours at 37° C.
Assay type: cell-based
Method: Test A. Minimum Inhibitory Concentration (MIC)-Based Assay for Efflux Pump Inhibition:
MIC-based assays were used to evaluate the impact of potential efflux pump inhibiting (EPI) compounds on the MIC of minocycline, an antibiotic known to be a substrate for Gram-negative bacterial efflux pumps. The assays were conducted in accordance with Clinical and Laboratory Standards Institute (CLSI) guidelines for broth microdilution, with the modification that assays were conducted in the presence and absence of the test EPI compounds. When present, the EPI compounds were added to cation-adjusted Mueller-Hinton (CAMH) broth (Becton, Dickinson and Co., Franklin Lakes, N.J.) at a final concentration of 12.5 μg/mL.
Log-phase Gram-negative bacteria were added to 96-well microtiter plates (at 5×10^5 colony forming units (CFU) per mL) containing two-fold serial dilutions of minocycline in CAMH broth either in the absence or presence of the test EPI compounds. In all assays, each serial dilution of minocycline was present in duplicate. The final volume in each well was 0.1 mL, and the microtiter plates were incubated aerobically for 24 hours at 37° C. Bacterial growth was then monitored by measuring the optical density (OD) at 600 nm using a VersaMax® plate reader (Molecular Devices, Inc., Sunnyvale, Calif.), with the MIC being defined as the lowest compound concentration at which growth was ≥90% inhibited compared to antibiotic-free control. The following Gram-negative bacterial strains were included in these assays: • Escherichia coli W4573, ATCC 25922, and ATCC BAA-201 (an extended spectrum β-lactamase (ESBL)-producing strain that expresses the TEM-3 β-lactamase). • Klebsiella pneumoniae ATCC 13883 and ATCC 700603 (an ESBL-producing strain that expresses the SHV-18 β-lactamase). • Pseudomonas aeruginosa ATCC 27853. The efflux pump mutant E. coli strain N43 (acrA1) was used as a positive control.
The enhancement is the ratio of the minocycline MIC in the absence of test compound to the minocycline MIC in the presence of test compound.

Structure (SMILES)	Enhancement
Cl.Cl.NCCC[C@H](N)CNC(=O)c1ccccc1C(F)(F)F [Example 1, (S)-5-(2-(trifluoromethyl)benzamido)pentane-1,4-diaminium chloride]	1
Cl.Cl.NCCC[C@H](N)CNC(=O)c1cccc(C(F)(F)F)c1 [Example 2, (S)-5-(3-(trifluoromethyl)benzamido)pentane-1,4-diaminium chloride]	2
Cl.Cl.NCCC[C@H](N)CNC(=O)c1ccc(C(F)(F)F)cc1 [Example 3, (S)-5-(4-(trifluoromethyl)benzamido)pentane-1,4-diaminium chloride]	4
Cl.Cl.NCCC[C@H](N)CNC(=O)c1ccccc1-c1ccccc1 [Example 4, (S)-5-([1,1′-biphenyl]-2-carboxamido)pentane-1,4-diaminium chloride]	2
Cl.Cl.NCCC[C@H](N)CNC(=O)c1cc(C(F)(F)F)ccc1C(F)(F)F [Example 5, (S)-5-(2,5-bis(trifluoromethyl)benzamido)pentane-1,4-diaminium chloride]	2
Cl.Cl.NCCC[C@H](N)CNC(=O)c1ccc(C(F)(F)F)c(C(F)(F)F)c1 [Example 6, (S)-5-(3,4-Bis(trifluoromethyl)benzamido)pentane-1,4-diaminium chloride]	32
Cl.Cl.NCCC[C@H](N)CNC(=O)c1cc(C(F)(F)F)cc(C(F)(F)F)c1 [Example 7, (S)-5-(3,5-bis(trifluoromethyl)benzamido)pentane-1,4-diaminium chloride]	16
Cl.Cl.NCCC[C@@H](N)CNC(=O)c1cc(C(F)(F)F)cc(C(F)(F)F)c1 [Example 8, (R)-5-(3,5-bis(trifluoromethyl)benzamido)pentane-1,4-diaminium chloride]	8
Cl.Cl.NCC[C@H](N)CNC(=O)c1cc(C(F)(F)F)cc(C(F)(F)F)c1 [Example 9, (S)-4-(3,5-bis(trifluoromethyl)benzamido)butane-1,3-diaminium chloride]	16
CC(C)(C)c1cc(C(=O)NC[C@@H](N)CCCN)cc(C(C)(C)C)c1.Cl.Cl [Example 10, (S)-5-(3,5-di-tert-butylbenzamido)pentane-1,4-diaminium chloride]	64
Cl.Cl.NCCC[C@H](N)CNC(=O)c1cc(-c2ccccc2)cc(-c2ccccc2)c1 [Example 11, (S)-5-([1,1′:3′,1″-terphenyl]-5′-carboxamido)pentane-1,4-diaminium chloride]	128
NC[C@@H](N)CCCNC(=O)c1cc(-c2ccccc2)cc(-c2ccccc2)c1 [Example 12, (S)-5-([1,1′:3′,1″-terphenyl]-5′-carboxamido)pentane-1,2-diaminium chloride]	2
Cl.Cl.NCCC[C@H](N)CNC(=O)c1cc(-c2ccc(F)cc2)cc(-c2ccc(F)cc2)c1 [Example 13, (S)-5-(4,4″-difluoro-[1,1′:3′,1″-terphenyl]-5′-carboxamido)pentane-1,4-diaminium chloride]	128
